Tested on: ovalbumin-sensitized guinea pigs
Assay: Guinea pig allergic rhinitis model: intranasal pressure after nasal ovalbumin challenge
Type: in vivo
Details: 60 minutes prior to ovalbumin 1% challenge, AUC 0-30 min
Method: Male Hartley guinea pigs (250-500 g) purchased from Charles River (St-Constant, Qc, Canada) were used. They were housed in a temperature and humidity controlled environment, in groups of four or five with food and water available ad libitum. Experimental procedures were approved by the Animal Care Committee at Merck Frosst Centre for Therapeutic Research, in accordance with the guidelines of the Canadian Council on Animal Care.
Sensitization: The animals were injected intraperitoneally with 0.5 ml of an ovalbumin solution (100 μg/ml) containing 100 mg/ml aluminum hydroxide in 0.9% saline. […]
Following the surgical preparation, gallamine (2 mg/kg, i.v.) was administered to suppress spontaneous breathing. […] The changes in the intranasal pressure were monitored through a pressure transducer (Validyne DP-45, membrane 6-26, Validyne Corp., Northridge, Calif.) connected to a side arm of the nasal cannula. Values were recorded every 5 seconds using a data acquisition system (Modular Instruments, Malvern, Pa.). […]
The effects of test compounds were evaluated on the increased intranasal pressure following a nasal challenge with an aerosol of ovalbumin 1% for 3 minutes. […] The changes in intranasal pressure were recorded for the 30 minutes following the nasal challenge, using the peak response. […]

C[S@+]([O-])c1cccc2c3c(n(Cc4ccc(Cl)cc4)c12)[C@@H](CC(=O)O)CCC3 [Compound I, 2-[(1R)-9-(4-chlorobenzyl)-8-((S)-methylsulfinyl)-2,3,4,9-tetrahydro-1H-carbazol-1-yl]acetic acid]
effect on the increase in intranasal pressure induced by ovalbumin aerosol (Compound I 1 mg/kg i.p. alone): no significant effect

COc1ccc(CN(CCN(C)C)c2ccccn2)cc1 [mepyramine]
effect on the increase in intranasal pressure induced by ovalbumin aerosol (mepyramine 5 mg/kg i.p. alone): no significant effect

Source: patent publication US20010051624A1, “Method and compositions for the treatment of allergic conditions using PGD2 receptor antagonists” (priority 2000, published 2001)
